Where two headings read alike, the source gives them in different places.
How the values were obtained:
[1] = target: T1, DCAF1(WDR) (Homo sapiens, UniProt Q9Y4B6, E1398S); test: SPR, surface immobilized DCAF1(WDR), binary compound binding; conditions: for Kd: binary, compound alone, spread in brackets, read-out: SPR KD
T1 construct: His6 (C); made in house; host or cells: Sf9 insect cells (baculovirus), co-expressed with BirA

[2] = target: T1, DCAF1(WDR); test: DCAF1 TR-FRET competition assay, standard binary format; type: binding; conditions: for IC50: binary
Method: Competition assay conditions consist of 20 µL total volume in white 384-well plates (Greiner), in 30 mM phosphate buffer pH 7.4 containing 140 mM NaCl, 0.01% Tween20, 1 mM TCEP and 1% final DMSO. Tested compounds at 14 different concentrations were pre-incubated at 22 °C for 30 min with a large excess of 10 µM human BTK (G389-S659) or 10 µM human BRD9-BD(130-250) in the cooperative assay or with buffer in standard binary assay. […] Samples were then incubated at 22 °C for 30 min before reading using a Tecan infinite M-1000 or PheraStar FSX (excitation 340 nm, emission 490 and 520 nm). DCAF1 protein was omitted in the negative control. IC50 fitting was carried out using an in-house developed software (Novartis Helios software application, unpublished, a publicly available alternative would be e.g., Graphpad Prism) using the methods described by Fomenko et al.[93] (regression algorithms for nonlinear dose-response curve fitting). Following normalization of activity values for the wells to % inhibition (% inhibition = [(high control-sample)/(high control-low control)] × 100). Data analysis could also be carried out using GraphPad Prism without prior normalization. The reported IC50 values are the average of at least two independent experiments.

[3] = target: T2, BRD7 (Homo sapiens, UniProt Q9NPI1); test: BRD7-HiBiT protein abundance luminescence assay in HEK293 cells; conditions: read-out: rel. DC50 (BRD7), 2 h
T2 sequence (Q9NPI1 1-651): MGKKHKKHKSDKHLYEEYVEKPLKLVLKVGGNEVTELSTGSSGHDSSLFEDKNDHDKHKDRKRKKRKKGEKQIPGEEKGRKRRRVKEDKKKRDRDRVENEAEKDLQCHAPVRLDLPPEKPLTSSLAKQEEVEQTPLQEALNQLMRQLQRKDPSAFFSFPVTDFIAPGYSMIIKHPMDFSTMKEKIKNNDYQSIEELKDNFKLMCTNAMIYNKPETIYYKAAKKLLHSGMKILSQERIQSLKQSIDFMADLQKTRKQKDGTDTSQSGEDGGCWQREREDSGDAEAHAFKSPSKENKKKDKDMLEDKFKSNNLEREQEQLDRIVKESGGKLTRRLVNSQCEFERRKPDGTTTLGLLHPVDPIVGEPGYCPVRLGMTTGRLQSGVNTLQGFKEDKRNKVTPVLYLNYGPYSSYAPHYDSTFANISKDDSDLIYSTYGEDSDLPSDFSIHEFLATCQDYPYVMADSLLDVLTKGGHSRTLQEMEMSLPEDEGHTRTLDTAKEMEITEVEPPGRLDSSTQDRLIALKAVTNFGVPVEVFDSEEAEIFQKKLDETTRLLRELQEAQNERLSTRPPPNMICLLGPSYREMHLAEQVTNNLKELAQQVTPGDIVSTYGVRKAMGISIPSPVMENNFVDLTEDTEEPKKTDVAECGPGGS
Text: HEK293/BRD9-HiBiT pools (PROMEGA # CS3023120) and HEK293/BRD7-HiBiT pools (PROMEGA # CS3023124) were purchased from Promega. We performed clonal selection for HEK293/BRD9-HiBiT cell line using single-cell sorting and screening for HiBiT expression using Nano-Glo HiBiT Lytic Detection System (Promega # N3030). The HEK293/BRD9-HiBiT clone and HEK293/BRD7-HiBiT pool to perform standard HiBiT assays.

[4] = compound alone, spread in brackets, read-out: TR-FRET Q. IC50

T1 sequence (Q9Y4B6 1073-1399 E1398S): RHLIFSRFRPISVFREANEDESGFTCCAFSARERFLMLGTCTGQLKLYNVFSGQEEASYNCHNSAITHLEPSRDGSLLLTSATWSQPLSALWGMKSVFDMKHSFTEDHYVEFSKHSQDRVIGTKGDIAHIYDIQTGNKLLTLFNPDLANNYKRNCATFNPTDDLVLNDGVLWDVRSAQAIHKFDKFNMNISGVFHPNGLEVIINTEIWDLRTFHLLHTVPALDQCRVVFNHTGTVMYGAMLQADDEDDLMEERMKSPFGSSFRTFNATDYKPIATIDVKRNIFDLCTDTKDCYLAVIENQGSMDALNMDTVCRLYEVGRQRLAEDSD

Kd [1]	IC50 [2, 4]	Compound	other results
–	–	COc1cc(-c2cn(C)c(=O)c3cnccc23)c(OC)cc1CN1CCC(OCCCCCC(=O)N2CCN(c3ccc4c(NCCN(C)C)nc(C5(c6ccc(Cl)cc6)CCCCC5)nc4c3)CC2)CC1 [DBr-1-N]	relative reduction in affinity compared to DBr-1, SPR [1]: 27 fold; relative reduction in affinity compared to DBr-1, TR-FRET [2]: 41 fold; IC50 ([2]; read-out: IC50 in TR-FRET assays (response to reviewers)): 812 nM
20 nM	20 nM	CC(=O)NCCOCCOCCOCCOCCOCCOCCC(=O)N1CCN(c2ccc3c(NCCN)nc(C4(c5ccc(Cl)cc5)CCCC4)nc3c2)CC1 [compound 15]	–
50 nM	10 nM	C#CCOCC(=O)N1CCN(c2ccc3c(NCCN)nc(C4(c5ccc(Cl)cc5)CCCCC4)nc3c2)CC1 [compound 16]	–
–	–	COc1cc(-c2cn(C)c(=O)c3cnccc23)c(OC)cc1CN(C)CC(=O)NCCOCCOCCNc1cccc2c1C(=O)N(C1CCC(=O)NC1=O)C2=O (centres unmarked) [dBRD9]	DC50 [3]: > 10000 nM

Source: PMC10766610, “DCAF1-based PROTACs with activity against clinically validated targets overcoming intrinsic- and acquired-degrader resistance” (Nature Communications, 2024)
